These results are taken from US20070293542A1, “Selective Cox-2 Inhibitors” (priority 2003, published 2007).

One data set deals with T1, human COX-2 (Homo sapiens, UniProt P35354).
T1 construct: purchased Cayman Chemical (Ann Arbor, Mich.)
T1 sequence (P35354 18-604): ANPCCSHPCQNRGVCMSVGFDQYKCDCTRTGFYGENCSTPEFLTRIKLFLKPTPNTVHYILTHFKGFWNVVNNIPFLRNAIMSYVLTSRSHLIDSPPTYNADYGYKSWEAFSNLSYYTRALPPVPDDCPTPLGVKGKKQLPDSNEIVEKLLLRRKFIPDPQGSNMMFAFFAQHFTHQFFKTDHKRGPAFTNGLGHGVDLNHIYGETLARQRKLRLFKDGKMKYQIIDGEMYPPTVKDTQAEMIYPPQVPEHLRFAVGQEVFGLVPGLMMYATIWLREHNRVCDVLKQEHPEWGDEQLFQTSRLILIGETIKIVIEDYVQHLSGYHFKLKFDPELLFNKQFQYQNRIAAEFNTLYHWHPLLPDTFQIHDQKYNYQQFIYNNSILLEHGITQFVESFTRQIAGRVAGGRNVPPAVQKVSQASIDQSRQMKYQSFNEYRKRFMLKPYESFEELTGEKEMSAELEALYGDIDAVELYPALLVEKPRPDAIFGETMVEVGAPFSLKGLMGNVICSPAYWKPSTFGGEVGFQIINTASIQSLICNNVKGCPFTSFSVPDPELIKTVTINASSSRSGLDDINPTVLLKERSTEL
Kind of data set: COX-2 purified enzyme assay (Cayman Chemical kit, PGH2 production detected as PGF2α by EIA). It is filed as biochemical. The settings on record: for COX-2 selectivity (IC50 for COX-1/IC50 for COX-2): ovine COX-1 vs human COX-2, purified enzymes; for IC50: purified human COX-2, read-out: IC50 for inhibition of COX-2. The source says: . Because COX-1 and COX-2 convert arachidonic acid to prostaglandin H2 (PGH2), one can assess COX inhibitory activity of a test compound by measuring the effect of the compound on PGH2 production in the presence of purified COX-1 enzyme and, in a separate assay, in the presence of purified COX-2 enzyme. In this assay, the production of PGH2 can be measured by reducing PGH2 to prostaglandin F2α (PGF2α) with SnCl2 and then detecting PGF2α by enzyme immunoassay (EIA) using a suitable antibody.
. Using the methods described above, the inhibition of human COX-2 and ovine COX-1 by desbenzoylindomethacin was measured. […]

In the next data set the test system is prostaglandin synthesis. The settings on record: reported by Shen and Winter 1977; cited from earlier work.
For the next data set, the target named is T2, ovine COX-1 (Ovis aries, UniProt P05979).
T2 construct: purchased Cayman Chemical (Ann Arbor, Mich.)
T2 sequence (P05979 25-600): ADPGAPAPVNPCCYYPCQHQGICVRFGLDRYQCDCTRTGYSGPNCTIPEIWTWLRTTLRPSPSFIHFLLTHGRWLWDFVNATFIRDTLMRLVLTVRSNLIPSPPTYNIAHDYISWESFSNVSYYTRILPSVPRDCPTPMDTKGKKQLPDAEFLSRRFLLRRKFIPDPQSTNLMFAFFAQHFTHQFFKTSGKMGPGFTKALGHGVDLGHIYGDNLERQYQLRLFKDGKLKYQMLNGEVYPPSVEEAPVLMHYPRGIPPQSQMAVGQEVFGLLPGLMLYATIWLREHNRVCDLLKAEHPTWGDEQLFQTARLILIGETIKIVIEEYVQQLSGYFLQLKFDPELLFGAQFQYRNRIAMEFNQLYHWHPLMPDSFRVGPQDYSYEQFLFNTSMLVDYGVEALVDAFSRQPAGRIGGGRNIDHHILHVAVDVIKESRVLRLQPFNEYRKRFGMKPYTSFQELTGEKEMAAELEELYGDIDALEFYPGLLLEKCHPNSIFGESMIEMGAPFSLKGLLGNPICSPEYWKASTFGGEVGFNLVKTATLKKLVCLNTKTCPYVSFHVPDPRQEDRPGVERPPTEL
In words: COX-1 purified enzyme assay (Cayman Chemical kit, PGH2 production detected as PGF2α by EIA). It is filed as biochemical. Conditions: purified ovine COX-1; read-out: IC50 for inhibition of COX-1. An excerpt: Because COX-1 and COX-2 convert arachidonic acid to prostaglandin H2 (PGH2), one can assess COX inhibitory activity of a test compound by measuring the effect of the compound on PGH2 production in the presence of purified COX-1 enzyme and, in a separate assay, in the presence of purified COX-2 enzyme. In this assay, the production of PGH2 can be measured by reducing PGH2 to prostaglandin F2α (PGF2α) with SnCl2 and then detecting PGF2α by enzyme immunoassay (EIA) using a suitable antibody.
Using the methods described above, the inhibition of human COX-2 and ovine COX-1 by desbenzoylindomethacin was measured.

SMILES strings stand for the structures.

Take `Cc1c(CC(=O)O)c2cc(O)c(F)cc2n1C(=O)c1ccccc1` [compound 12, (1-benzoyl-6-fluoro-5-hydroxy-2-methyl-1H-indol-3-yl)acetic acid]: the melting point (commonly the temperature of the solid-liquid transition) lay within 159 to 161 °C.
Regarding `Cc1c(CC(=O)O)c2cc(O)ccc2n1C(=O)c1ccc(Cl)cc1` [desmethylindomethacin, 1-(p-Chlorobenzoyl)-5-hydroxy-2-methylindole-3-acetic acid], at human COX-2, the “COX-2 selectivity (IC50 for COX-1/IC50 for COX-2)” value is reported as 50-150 and the half-maximal inhibitory concentration (IC50) (in general, the concentration needed to halve the response being measured) was in the range of 0.1 to 0.3 µM. Moreover, the “ability to inhibit prostaglandin synthesis” value with prostaglandin synthesis is reported as “some ability to inhibit prostaglandin synthesis”. On ovine COX-1, the IC50 amounted to 15 µM.
Consider `Cc1c(CC(=O)O)c2cc(O)ccc2n1C(=O)c1ccccc1` [compound 5, (1-benzoyl-5-hydroxy-2-methyl-1H-indol-3-yl)acetic acid], for which the melting point lay in the range of 186 to 188 °C.
Regarding `COc1ccc2[nH]c(C)c(CC(=O)O)c2c1` [desbenzoylindomethacin], the “potency reduced relative to indomethacin” value on human COX-2 (COX-1 and COX-2 purified enzyme assays) is listed as roughly 100 fold. In addition, at human COX-2, the “COX-2 selectivity (IC50 for COX-1/IC50 for COX-2)” value was found to be 1.6 and the IC50 stood at 12 µM. The IC50 at ovine COX-1 is 20 µM.
